Assay [1] deals with CD8+ T cells of healthy HLA-A*02+ donors. Nature of the assay: In vitro immunogenicity: priming of CD8+ T cells with aAPCs loaded with HLA-A*02/peptide complexes and anti-CD28, multimer staining. It counts as cell-based, human. The note with it: HLA-A*02 peptides of Table 12B. The protocol:
CD8+ T cells were primed using artificial APCs coated with anti-CD28 mAb and HLA-A*02 in complex with SEQ ID NO: 2 peptide (FIG. 4A, left panel), SEQ ID NO: 9 peptide (FIG. 4B, left panel) and SEQ ID NO: 331 peptide (FIG. 4C, left panel), respectively. After three cycles of stimulation, the detection of peptide-reactive cells was performed by 2D multimer staining with A*02/SEQ ID NO: 2 (A), A*02/SEQ ID NO: 9 (B) or A*02/SEQ ID NO: 331 (C). Right panels (FIGS. 4A, 4B and 4C) show control staining of cells stimulated with irrelevant A*02/peptide complexes. Viable singlet cells were gated for CD8+ lymphocytes. Boolean gates helped excluding false-positive events detected with multimers specific for different peptides. Frequencies of specific multimer+ cells among CD8+ lymphocytes are indicated.
In order to obtain information regarding the immunogenicity of the TUMAPs of the present invention, the inventors performed investigations using an in vitro T-cell priming assay based on repeated stimulations of CD8+ T cells with artificial antigen presenting cells (aAPCs) loaded with peptide/MHC complexes and anti-CD28 antibody.
In order to perform in vitro stimulations by artificial antigen presenting cells loaded with peptide-MHC complex (pMHC) and anti-CD28 antibody, the inventors first isolated CD8+ T cells from fresh HLA-A*02 leukapheresis products via positive selection using CD8 microbeads (Miltenyi Biotec, Bergisch-Gladbach, Germany) of healthy donors obtained from the University clinics Mannheim, Germany, after informed consent.
PBMCs and isolated CD8+ lymphocytes were incubated in T-cell medium (TCM) until use consisting of RPMI-Glutamax (Invitrogen, Karlsruhe, Germany) supplemented with 10% heat inactivated human AB serum (PAN-Biotech, Aidenbach, Germany), 100 U/ml Penicillin/100 μg/ml Streptomycin (Cambrex, Cologne, Germany), 1 mM sodium pyruvate (CC Pro, Oberdorla, Germany), 20 μg/ml Gentamycin (Cambrex). 2.5 ng/ml IL-7 (PromoCell, Heidelberg, Germany) and 10 U/ml IL-2 (Novartis Pharma, Nurnberg, Germany) were also added to the TCM at this step.
Generation of pMHC/anti-CD28 coated beads, T-cell stimulations and readout was performed in a highly defined in vitro system using four different pMHC molecules per stimulation condition and 8 different pMHC molecules per readout condition.
The purified co-stimulatory mouse IgG2a anti human CD28 Ab 9.3 (Jung et al., 1987) was chemically biotinylated using Sulfo-N-hydroxysuccinimidobiotin as recommended by the manufacturer (Perbio, Bonn, Germany). Beads used were 5.6 μm diameter streptavidin coated polystyrene particles (Bangs Laboratories, Illinois, USA).
pMHC used for positive and negative control stimulations were A*0201/MLA-001 (peptide […] (SEQ ID NO. 418) from modified Melan-A/MART-1) and A*0201/DDX5-001 ([…] from DDX5, SEQ ID NO. 419), respectively.
800.000 beads/200 μl were coated in 96-well plates in the presence of 4×12.5 ng different biotin-pMHC, washed and 600 ng biotin anti-CD28 were added subsequently in a volume of 200 μl. Stimulations were initiated in 96-well plates by co-incubating 1×10^6 CD8+ T cells with 2×10^5 washed coated beads in 200 μl TCM supplemented with 5 ng/ml IL-12 (PromoCell) for 3 days at 37° C. Half of the medium was then exchanged by fresh TCM supplemented with 80 U/ml IL-2 and incubating was continued for 4 days at 37° C. This stimulation cycle was performed for a total of three times. For the pMHC multimer readout using 8 different pMHC molecules per condition, a two-dimensional combinatorial coding approach was used as previously described (Andersen et al., 2012) with minor modifications encompassing coupling to 5 different fluorochromes. Finally, multimeric analyses were performed by staining the cells with Live/dead near IR dye (Invitrogen, Karlsruhe, Germany), CD8-FITC antibody clone SKI (BD, Heidelberg, Germany) and fluorescent pMHC multimers. For analysis, a BD LSRII SORP cytometer equipped with appropriate lasers and filters was used. […]

A further assay concerns the target HLA-A*02 (Homo sapiens, UniProt P04439, D140Y/D185E/D98H/E176V/E277Q/G131W/G231S/I119V/I121R/I166T/I218V/N151K/N90K/P208A/P217A/Q86G/Q94H/R138H/R169H). Description: MHC binding assay: UV-ligand exchange, beta2m ELISA (peptide exchange yield). The note with it: binding to HLA-A*02, β2m ELISA. An excerpt: Candidate peptides for T cell based therapies according to the present invention were further tested for their MHC binding capacity (affinity). The individual peptide-MHC complexes were produced by UV-ligand exchange, where a UV-sensitive peptide is cleaved upon UV-irradiation, and exchanged with the peptide of interest as analyzed. Only peptide candidates that can effectively bind and stabilize the peptide-receptive MHC molecules prevent dissociation of the MHC complexes. To determine the yield of the exchange reaction, an ELISA was performed based on the detection of the light chain (β2m) of stabilized MHC complexes. The assay was performed as generally described in Rodenko et al. (Rodenko et al., 2006).
96 well MAXISorp plates (NUNC) were coated over night with 2 ug/ml streptavidin in PBS at room temperature, washed 4× and blocked for 1 h at 37° C. in 2% BSA containing blocking buffer. […] Peptide-MHC monomers of the UV-exchange reaction were diluted 100 fold in blocking buffer. Samples were incubated for 1 h at 37° C., washed four times, incubated with 2 ug/ml HRP conjugated anti-βm for 1 h at 37° C., washed again and detected with TMB solution that is stopped with […]. Absorption was measured at 450 nm. Candidate peptides that show a high exchange yield (preferably higher than 50%, most preferred higher than 75%) are generally preferred for a generation and production of antibodies or fragments thereof, and/or T cell receptors or fragments thereof, as they show sufficient avidity to the MHC molecules and prevent dissociation of the MHC complexes.
Background: ELISA stands for enzyme-linked immunosorbent assay.

As to “331 (AIWKELISL; listed as Homo sapiens) [compound 331]”, in assay [1], the “Wells positive [%]” value is “++ (20%-49% = ++)”. For the same substance, the “Peptide exchange (MHC class I binding score, peptide exchange yield)” value (“Peptide exchange” for short) with HLA-A*02 is recorded as “+++ (50%-75% = +++)”.
For “7 (AAAAKVPEV; listed as Homo sapiens) [compound 7]”, in that order: “+ (<20% = +)” and “+++ (50%-75% = +++)”.
Regarding “2 (ALYGKLLKL; listed as Homo sapiens) [compound 2]”, the “Wells positive [%]” value in assay [1] was “++++ (>= 70 % = ++++)”. Also, the “Peptide exchange” value with HLA-A*02 is recorded as “+++ (50%-75% = +++)”.
The like results for “17 (ILHEHHIFL; listed as Homo sapiens) [compound 17]” were, in that order, “+ (<20% = +)” and “+++ (50%-75% = +++)”.
In the case of “43 (LLWAGPVTA; listed as Homo sapiens) [compound 43]”, in assay [1], the “Wells positive [%]” value is reported as “++++ (>= 70 % = ++++)”. For the same substance, the “Peptide exchange” value with HLA-A*02 is listed as “+++ (50%-75% = +++)”.
Take “8 (KLGPFLLNA; listed as Homo sapiens) [compound 8]”: the “Wells positive [%]” value in assay [1] is “+++ (50%-69% = +++)”. Also, the “Peptide exchange” value with HLA-A*02 was “+++ (50%-75% = +++)”.
In the case of “9 (FLGDYVENL; listed as Homo sapiens) [compound 9]”, the “Wells positive [%]” value in assay [1] is on record as “+ (<20% = +)”. Besides, in the assay with HLA-A*02, the “Peptide exchange” value is listed as “++ (20%-49% = ++)”.
Regarding “322 (ALVSGGVAQA; listed as Homo sapiens) [compound 322]”, the “Wells positive [%]” value in assay [1] is “+ (<20% = +)”. Besides, the “Peptide exchange” value with HLA-A*02 was “+++ (50%-75% = +++)”.

The values above are taken from US10568950B1, “Peptides, combination of peptides and scaffolds for use in immunotherapeutic treatment of various cancers” (Immatics Biotechnologies GmbH, priority 2015, dated 2020).
